Results taken from patent US20190062322A1, “PUMA INHIBITOR, METHOD FOR PREPARATION THEREOF, AND USE THEREOF” (FOURTH MILITARY MEDICAL UNIVERSITY, priority 2016, published 2019).

Biological target: Mcl-1 (Homo sapiens, UniProt Q07820)
Assay: FPA competition assay, inhibition of Mcl-1 / FITC-Mcl-BH3 binding
Settings: 250 nM Mcl-1 and 250 nM FITC-Mcl-BH3 probe, pH 7.5, cells printed in nM
Description: Experiment 1 the Inhibition Assay of Compounds 1˜12 to Mcl-1
FPA competition assays were adopted to evaluate the binding affinity of compounds to Mcl-1. The FITC labelled BH3 peptide of Mcl-1 (FITC-Mcl-BH3, FITC-AHx-KALETLRRVGD GVQRNHITAF-NH2) was synthesized and used as fluorescence probe in the FPA competition assays. The binding of FITC-Mcl-BH3 and Mcl-1 can enhance the polarized light. While the binding of compounds and Mcl-1 would reduce the polarization, IC50 is the compound concentration that displaces 50% of the fluorescent ligand from the ligand-receptor complex.
All assays were performed in the assay buffer (pH 7.5) composed of 20 mM Tris, 50 mM NaCl, 3 mM DTT and 2% DMSO. The FPA competition assays were carried out in the 96-well, black, flat-bottom plates (Nunc). To check the interference effects of candidate compounds on the interaction between Mcl-1 and FITC-Mcl-BH3, solutions containing 250 nM Mcl-1 and 250 nM fluorescence probes were titrated with […] selected compounds (0-128 μM, 2-times gradient) dissolved in the assay buffer. The emission fluorescence changes were recorded from 480 to 540 nm by TECAN Infinite M1000 Microplate Spectrophotometer with excitation wavelength being 450 nm. The IC50 were calculated.

Chain of Mcl-1 (Q07820 whole entry, species assumed): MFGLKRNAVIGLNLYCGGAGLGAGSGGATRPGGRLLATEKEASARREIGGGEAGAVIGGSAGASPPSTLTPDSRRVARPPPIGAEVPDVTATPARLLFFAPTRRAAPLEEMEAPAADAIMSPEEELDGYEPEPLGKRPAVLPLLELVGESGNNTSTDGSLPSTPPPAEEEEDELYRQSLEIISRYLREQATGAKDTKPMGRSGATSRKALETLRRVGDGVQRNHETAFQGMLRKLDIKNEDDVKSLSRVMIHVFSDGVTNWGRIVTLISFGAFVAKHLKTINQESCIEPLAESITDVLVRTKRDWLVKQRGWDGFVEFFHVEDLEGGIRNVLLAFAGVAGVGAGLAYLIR

Row | Compound | IC50 [nM]
1 | Cc1ccc(C=C2SC(N3CCN(CCO)CC3)=NC2=O)cc1 [Compound 3] | 401
2 | COc1ccc(/C=C2\SC(N3CCN(CCO)CC3)=NC2=O)cc1 [Compound 4] | 161
3 | O=C1N=C(N2CCN(CCO)CC2)S/C1=C\c1ccc(Cl)cc1 [Compound 5] | 89.7
4 | O=C1N=C(N2CCC(CCO)CC2)SC1=Cc1ccccc1 [Compound 8] | 589
5 | COc1ccc(C=C2SC(N3CCC(CCO)CC3)=NC2=O)cc1 [Compound 11] | 52.1
6 | O=C1N=C(N2CCC(CCO)CC2)SC1=Cc1ccc(Cl)cc1 [Compound 12] | 369
